Laboratory results taken from US11813248B2, “NK-1 antagonist compositions and methods for use in treating depression” (priority 2017, dated 2023).

What was measured:
subjects = details: in vivo
Description: The study was a single center, single-blind study.
Once a subject had reached his/her first intolerable dose (FID-1), upward dose escalation was discontinued.
All other provisions of the protocol remained unchanged. Assessments were the same as those planned for the dose escalation day.
On each study day, subjects were followed up for up to 8 hours following drug administration for AEs, vital signs, ECGs. In addition, a laboratory panel was taken at screening and at the end of the study.

PD patients = details: 0.125 to 1.0 mg three times per day; 12 weeks; 296 PD patients; p=0.01 vs placebo; cited from earlier work
[1] = system: patients with a DSM-III-R diagnosis of major depression; details: pramipexole 5.0 mg group, cited from earlier work
[2] = system: animal behavior simulating symptoms of depression; details: high doses of pramipexole; cited from earlier work

CCCN[C@H]1CCc2nc(N)sc2C1 [Pramipexole, (S)-6-propylamino-4,5,6,7-tetrahydro-1,3-benzothiazole-2-amine]
dose limiting toxicity (subjects): gastro-intestinal adverse events
BDI scores decreased by an adjusted (PD patients): 5.9 (SE 0.5)
patients who completed the study ([1]; 8 weeks of treatment): 42.4%
improvement at week 8 ([1]; change from baseline, no p value because of high drop-out rate): −15.00
patients reported nausea [1]: 76%
patients reported vomiting [1]: 39%
patients discontinued treatment prematurely ([1]; mainly because of adverse events): 57.6%
activity in tests of animal behavior simulating symptoms of depression [2]: active
